Results as given in ChEMBL document CHEMBL1201862, “PubChem BioAssay data set” (2004).
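Tested at 5 concentrations; 48 h exposure; 96-well plates; endpoints linearly interpolated, else capped at highest concentration. The concentration for 50% growth inhibition is given as GI50.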 Calls of active or inactive are those of the source. Cut-off read from the data, not from the text of the source: active = GI50 up to about 1.1 µM and inactive = higher.

Legend:
Experiment in all cases: inhibition of tumour cell growth, NCI panel, 48 h
[1] = test system: BT-549
[2] = test system: HT-29
[3] = test system: OVCAR-3
[4] = test system: TK-10
[5] = test system: SK-OV-3
[6] = test system: U-251
[7] = test system: HCT-116
[8] = test system: NCI-H522
[9] = test system: Malme-3M
[10] = test system: KM12
[11] = test system: T47D
[12] = test system: SF-539
[13] = test system: SN12C
[14] = test system: ACHN
[15] = test system: SF-268
[16] = test system: IGROV-1
[17] = test system: NCI-H226
[18] = test system: SK-MEL-5
[19] = test system: HCC 2998
[20] = test system: RXF 393
[21] = test system: MDA-MB-231
[22] = test system: NCI-H23
[23] = test system: SW-620
[24] = test system: UACC-257
[25] = test system: HCT-15
[26] = test system: OVCAR-4
[27] = test system: MOLT-4
[28] = test system: Hs-578T
[29] = test system: MDA-N
[30] = test system: SNB-19
[31] = test system: OVCAR-8
[32] = test system: NCI-H460
[33] = test system: UACC-62
[34] = test system: SF-295
[35] = test system: UO-31
[36] = test system: K562
[37] = test system: HL-60
[38] = test system: DU-145
[39] = test system: CAKI-1
[40] = test system: CCRF-CEM
[41] = test system: LOX IMVI
[42] = test system: SK-MEL-2
[43] = test system: A549
[44] = test system: MCF7
[45] = test system: 786-0
[46] = test system: SNB-75
[47] = test system: RPMI-8226
[48] = test system: EKVX
[49] = test system: HOP-62
[50] = test system: OVCAR-5
[51] = test system: NCI/ADR-RES
[52] = test system: HOP-92
[53] = test system: M14
[54] = test system: MDA-MB-435
[55] = test system: COLO 205
[56] = test system: PC-3
[57] = test system: SR
[58] = test system: SK-MEL-28

Q: Which GI50 [1] does the source give for Cc1cc(C)nc(NS(=O)(=O)c2ccc(NNc3c4ccccc4nc4c(C(=O)Nc5ccc(S(=O)(=O)Nc6cc(C)on6)cc5)cccc34)cc2)n1 here?
A: 72.1 µM (inactive)

Q: And the GI50 [2]?
A: 23.2 µM (inactive)

Q: What about the GI50 [3] of the same compound?
A: 20.4 µM (inactive)

Q: And the GI50 [4]?
A: 54.1 µM (inactive)

Q: And the GI50 [5]?
A: 29 µM (inactive)

Q: What about the GI50 [6] of the same compound?
A: 26.7 µM (inactive)

Q: What about the GI50 [7] of the same compound?
A: 31.3 µM (inactive)

Q: What about the GI50 [8] of the same compound?
A: 28.2 µM (inactive)

Q: And the GI50 [9]?
A: 53.7 µM (inactive)

Q: What about the GI50 [10] of the same compound?
A: 39.4 µM (inactive)

Q: What about the GI50 [11] of the same compound?
A: 33.5 µM (inactive)

Q: And the GI50 [12]?
A: 34.9 µM (inactive)

Q: And the GI50 [13]?
A: 37 µM (inactive)

Q: And the GI50 [14]?
A: 31.3 µM (inactive)

Q: And the GI50 [15]?
A: 27.4 µM (inactive)

Q: And the GI50 [16]?
A: 29 µM (inactive)

Q: What about the GI50 [17] of the same compound?
A: 25.8 µM (inactive)

Q: And the GI50 [18]?
A: 31.3 µM (inactive)

Q: What about the GI50 [19] of the same compound?
A: 23.2 µM (inactive)

Q: What about the GI50 [20] of the same compound?
A: 44.1 µM (inactive)

Q: What about the GI50 [21] of the same compound?
A: 33.1 µM (inactive)

Q: And the GI50 [22]?
A: 46.8 µM (inactive)

Q: And the GI50 [23]?
A: 39.5 µM (inactive)

Q: What about the GI50 [24] of the same compound?
A: 73.6 µM (inactive)

Q: What about the GI50 [25] of the same compound?
A: 51.1 µM

Q: And the GI50 [26]?
A: 46.3 µM (inactive)

Q: What about the GI50 [27] of the same compound?
A: 32.5 µM (inactive)

Q: And the GI50 [28]?
A: 51.4 µM (inactive)

Q: What about the GI50 [29] of the same compound?
A: 44.2 µM (inactive)

Q: What about the GI50 [30] of the same compound?
A: 48 µM (inactive)

Q: And the GI50 [31]?
A: 35.6 µM (inactive)

Q: What about the GI50 [32] of the same compound?
A: 40.9 µM (inactive)

Q: What about the GI50 [33] of the same compound?
A: 46.3 µM (inactive)

Q: What about the GI50 [34] of the same compound?
A: 57.1 µM (inactive)

Q: What about the GI50 [35] of the same compound?
A: 34.7 µM (inactive)

Q: What about the GI50 [36] of the same compound?
A: 34.5 µM (inactive)

Q: What about the GI50 [37] of the same compound?
A: 30.8 µM (inactive)

Q: And the GI50 [38]?
A: 49.2 µM (inactive)

Q: And the GI50 [39]?
A: 87.5 µM (inactive)

Q: And the GI50 [40]?
A: 23.1 µM (inactive)

Q: And the GI50 [41]?
A: 32.3 µM (inactive)

Q: What about the GI50 [42] of the same compound?
A: 22.7 µM (inactive)

Q: And the GI50 [43]?
A: > 100 µM (inactive)

Q: What about the GI50 [44] of the same compound?
A: 50.8 µM (inactive)

Q: And the GI50 [45]?
A: 51.6 µM (inactive)

Q: What about the GI50 [46] of the same compound?
A: 30.9 µM (inactive)

Q: And the GI50 [47]?
A: 42.9 µM (inactive)

Q: And the GI50 [48]?
A: 19.2 µM (inactive)

Q: What about the GI50 [49] of the same compound?
A: 82 µM (inactive)

Q: And the GI50 [50]?
A: 23.9 µM (inactive)

Q: What about the GI50 [51] of the same compound?
A: > 100 µM (inactive)

Q: And the GI50 [52]?
A: 23.7 µM (inactive)

Q: What about the GI50 [53] of the same compound?
A: 53.2 µM (inactive)

Q: What about the GI50 [54] of the same compound?
A: 41.5 µM (inactive)

Q: And the GI50 [55]?
A: 36.4 µM (inactive)

Q: What about the GI50 [56] of the same compound?
A: 34.8 µM (inactive)

Q: What about the GI50 [57] of the same compound?
A: 24.9 µM (inactive)

Q: What does the source list for Cc1cccc(/N=N/C(=N\NC(=O)c2cc(Cl)ccc2O)c2ccc(N(CCC#N)CCC#N)cc2C)c1?
A: GI50 [1]: 24.2 µM (inactive); GI50 [2]: 28.3 µM (inactive); GI50 [3]: 18.5 µM (inactive); GI50 [4]: 20 µM (inactive); GI50 [5]: 35.7 µM (inactive); GI50 [6]: 36.1 µM (inactive); GI50 [7]: 33 µM (inactive); GI50 [8]: 20.8 µM (inactive); GI50 [58]: 42.9 µM (inactive); GI50 [9]: 28.1 µM (inactive); GI50 [10]: 27.2 µM (inactive); GI50 [11]: 22.9 µM (inactive); GI50 [12]: 33.3 µM (inactive); GI50 [13]: 24 µM (inactive); GI50 [14]: 34.7 µM (inactive); GI50 [15]: 30.1 µM (inactive); GI50 [16]: 14.6 µM (inactive); GI50 [17]: 36 µM (inactive); GI50 [18]: 34 µM (inactive); GI50 [19]: 28.5 µM (inactive); GI50 [20]: 30.4 µM (inactive); GI50 [21]: 21.2 µM (inactive); GI50 [22]: 32.7 µM (inactive); GI50 [23]: 46.7 µM (inactive); GI50 [24]: 30.7 µM (inactive); GI50 [25]: 27.7 µM; GI50 [26]: 22.1 µM (inactive); GI50 [27]: 15.9 µM (inactive); GI50 [28]: 77.6 µM (inactive); GI50 [29]: 55.6 µM (inactive); GI50 [30]: 35.1 µM (inactive); GI50 [31]: 31.3 µM (inactive); GI50 [32]: 26.1 µM (inactive); GI50 [33]: 24 µM (inactive); GI50 [34]: 40.3 µM (inactive); GI50 [35]: 21.9 µM (inactive); GI50 [36]: 33.3 µM (inactive); GI50 [37]: 14.3 µM (inactive); GI50 [38]: 39.6 µM (inactive); GI50 [39]: 30.6 µM (inactive); GI50 [40]: 8.79 µM (inactive); GI50 [41]: 31 µM (inactive); GI50 [42]: 29 µM (inactive); GI50 [43]: 26.5 µM (inactive); GI50 [44]: 32.2 µM (inactive); GI50 [45]: 38.5 µM (inactive); GI50 [46]: 37.9 µM (inactive); GI50 [47]: 14.9 µM (inactive); GI50 [48]: 34.7 µM (inactive); GI50 [49]: 28.2 µM (inactive); GI50 [50]: 64.9 µM (inactive); GI50 [51]: 45.1 µM (inactive); GI50 [52]: 23.8 µM (inactive); GI50 [53]: 45.5 µM (inactive); GI50 [54]: 47.1 µM (inactive); GI50 [55]: 13.6 µM (inactive); GI50 [56]: 25.8 µM (inactive); GI50 [57]: 22.8 µM (inactive)
